The values that follow come from ChEMBL document CHEMBL1909046, “DrugMatrix in vitro pharmacology data”.

Data set [1] concerns the target Beta-2 adrenergic receptor (Homo sapiens, UniProt P07550). Nature of the data set: DRUGMATRIX: Adrenergic beta2 radioligand binding (ligand: [3H] CGP-12177). Format: cell membranes, Membrane. The following applies: cho; Not Active = under 50% inhibition at 10 µM.
The target of data set [2] is C-C chemokine receptor type 2 (Homo sapiens, UniProt P41597). It counts as cell membranes, CHO-K1, Membrane. The following applies: cho-k1. Also: in other assays of this panel Not Active means under 50% inhibition at 10 µM.
For the next data set, the target named is T1, Leukotriene C4 synthase (Cavia porcellus, UniProt A6XA80).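 Also: enzyme inhibition assay of leukotriene C4 synthase, using LTA4 as the substrate; in other assays of this panel Not Active means under 50% inhibition at 10 µM.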
T1 sequence (A6XA80 whole entry): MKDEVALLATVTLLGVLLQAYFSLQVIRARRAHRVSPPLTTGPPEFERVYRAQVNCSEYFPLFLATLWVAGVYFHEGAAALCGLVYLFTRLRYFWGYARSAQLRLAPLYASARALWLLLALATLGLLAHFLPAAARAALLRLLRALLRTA
It counts as tissue-based, Lung.

The next data set concerns the target Melanocortin receptor 3 (Homo sapiens, UniProt P41968). It counts as cell membranes, Membrane. The note with it: hek293. Also: in other assays of this panel Not Active means under 50% inhibition at 10 µM.
The target of the next data set is T2, Progesterone receptor (Bos taurus, UniProt Q690N0).
T2 sequence (Q690N0 whole entry): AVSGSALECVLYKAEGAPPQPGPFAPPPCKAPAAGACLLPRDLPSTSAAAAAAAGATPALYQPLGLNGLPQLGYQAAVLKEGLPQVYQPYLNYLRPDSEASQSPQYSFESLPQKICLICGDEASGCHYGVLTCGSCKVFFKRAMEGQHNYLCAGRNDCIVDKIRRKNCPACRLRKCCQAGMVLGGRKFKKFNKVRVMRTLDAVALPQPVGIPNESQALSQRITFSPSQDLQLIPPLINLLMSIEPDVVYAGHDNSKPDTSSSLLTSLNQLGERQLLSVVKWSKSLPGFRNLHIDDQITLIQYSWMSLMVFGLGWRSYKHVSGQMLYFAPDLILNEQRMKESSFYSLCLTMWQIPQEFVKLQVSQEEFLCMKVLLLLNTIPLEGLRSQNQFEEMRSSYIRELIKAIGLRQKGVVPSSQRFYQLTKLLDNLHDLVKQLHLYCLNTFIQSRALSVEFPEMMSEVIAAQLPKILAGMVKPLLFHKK
Nature of the data set: DRUGMATRIX: Progesterone radioligand binding (ligand: [3H] R-5020). Format: tissue-based, Uterus. The note with it: Not Active = under 50% inhibition at 10 µM.

Data set [3] concerns the target Mitogen-activated protein kinase 14 (Homo sapiens, UniProt Q16539). On the set-up: species or system Escherichia coli.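 Also: inhibition of p38alpha enzyme activity in a biochemical kinase assay, with myelin basic protein serving as substrate; in other assays of this panel Not Active means under 50% inhibition at 10 µM.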
In data set [4] the target is Protein phosphatase 3 catalytic subunit alpha (Homo sapiens, UniProt Q08209). On the set-up: species or system Escherichia coli.
The next data set addresses Cytochrome P450 2C19 (Homo sapiens, UniProt P33261). The note with it: bti-tn-5b1-4.
The target in a further data set is Cytochrome P450 2C9 (Homo sapiens, UniProt P11712). The following applies: bti-tn-5b1-4. Also: in other assays of this panel Not Active means under 50% inhibition at 10 µM.
Data set [5] has as its target T3, Alpha-2A adrenergic receptor (Homo sapiens, UniProt P08913). Also: in other assays of this panel Not Active means under 50% inhibition at 10 µM.
T3 sequence (P08913 whole entry): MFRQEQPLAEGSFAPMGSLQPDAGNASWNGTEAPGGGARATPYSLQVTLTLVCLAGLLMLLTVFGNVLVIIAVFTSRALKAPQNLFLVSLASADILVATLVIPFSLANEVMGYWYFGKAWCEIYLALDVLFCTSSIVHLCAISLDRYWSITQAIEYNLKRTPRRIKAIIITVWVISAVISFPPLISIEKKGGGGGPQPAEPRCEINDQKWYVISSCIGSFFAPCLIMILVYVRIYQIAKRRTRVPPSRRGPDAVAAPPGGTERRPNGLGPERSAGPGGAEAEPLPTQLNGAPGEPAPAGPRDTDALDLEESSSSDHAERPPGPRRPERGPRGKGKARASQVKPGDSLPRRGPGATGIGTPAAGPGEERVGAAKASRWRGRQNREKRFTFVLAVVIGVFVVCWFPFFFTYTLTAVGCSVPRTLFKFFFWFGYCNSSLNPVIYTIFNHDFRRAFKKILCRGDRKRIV
It counts as cell membranes, Sf9, Membrane.

Data set [6] is described as follows: DRUGMATRIX: Potassium Channel [KATP] radioligand binding (ligand: [3H] Glyburide). Format: cell membranes, Membrane. The note with it: hit-t15; Not Active = under 50% inhibition at 10 µM.

Sequence of Cytochrome P450 2C9 (P11712 whole entry): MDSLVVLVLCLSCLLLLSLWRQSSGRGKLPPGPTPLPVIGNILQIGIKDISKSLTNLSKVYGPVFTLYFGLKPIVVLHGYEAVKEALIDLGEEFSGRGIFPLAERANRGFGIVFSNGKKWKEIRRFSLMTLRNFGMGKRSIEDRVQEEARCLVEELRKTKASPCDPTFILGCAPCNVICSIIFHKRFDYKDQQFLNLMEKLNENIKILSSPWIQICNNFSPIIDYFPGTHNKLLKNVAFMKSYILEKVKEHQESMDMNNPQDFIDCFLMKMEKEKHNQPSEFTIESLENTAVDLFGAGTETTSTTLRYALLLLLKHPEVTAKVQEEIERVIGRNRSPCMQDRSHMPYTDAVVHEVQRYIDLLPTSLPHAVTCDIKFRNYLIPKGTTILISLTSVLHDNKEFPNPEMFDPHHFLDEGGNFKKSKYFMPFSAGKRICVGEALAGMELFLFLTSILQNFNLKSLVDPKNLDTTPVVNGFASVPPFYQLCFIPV
Sequence of Beta-2 adrenergic receptor (P07550 whole entry): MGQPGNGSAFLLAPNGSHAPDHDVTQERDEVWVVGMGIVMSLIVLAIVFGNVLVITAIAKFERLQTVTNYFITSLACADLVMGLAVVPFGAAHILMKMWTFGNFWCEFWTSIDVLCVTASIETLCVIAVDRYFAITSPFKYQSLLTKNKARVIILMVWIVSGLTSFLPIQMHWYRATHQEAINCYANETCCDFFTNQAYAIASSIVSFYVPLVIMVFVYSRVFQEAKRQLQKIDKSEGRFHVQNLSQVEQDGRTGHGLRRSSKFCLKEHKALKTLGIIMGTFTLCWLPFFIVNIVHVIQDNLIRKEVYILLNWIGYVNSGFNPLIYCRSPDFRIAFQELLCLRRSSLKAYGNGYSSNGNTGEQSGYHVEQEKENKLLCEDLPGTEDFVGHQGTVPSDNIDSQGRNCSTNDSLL
Sequence of Cytochrome P450 2C19 (P33261 whole entry): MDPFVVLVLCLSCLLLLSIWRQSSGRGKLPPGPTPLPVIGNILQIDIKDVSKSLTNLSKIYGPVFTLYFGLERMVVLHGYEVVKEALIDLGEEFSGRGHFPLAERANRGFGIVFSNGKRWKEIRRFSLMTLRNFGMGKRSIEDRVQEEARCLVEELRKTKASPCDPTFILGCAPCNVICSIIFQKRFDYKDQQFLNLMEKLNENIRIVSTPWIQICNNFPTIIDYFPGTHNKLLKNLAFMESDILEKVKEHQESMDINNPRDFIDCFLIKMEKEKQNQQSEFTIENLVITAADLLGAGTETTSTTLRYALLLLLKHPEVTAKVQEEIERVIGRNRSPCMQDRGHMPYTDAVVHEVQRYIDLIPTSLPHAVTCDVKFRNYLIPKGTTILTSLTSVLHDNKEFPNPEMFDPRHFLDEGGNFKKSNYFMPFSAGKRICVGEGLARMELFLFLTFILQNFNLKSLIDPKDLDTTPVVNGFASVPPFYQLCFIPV
Sequence of Mitogen-activated protein kinase 14 (Q16539 whole entry): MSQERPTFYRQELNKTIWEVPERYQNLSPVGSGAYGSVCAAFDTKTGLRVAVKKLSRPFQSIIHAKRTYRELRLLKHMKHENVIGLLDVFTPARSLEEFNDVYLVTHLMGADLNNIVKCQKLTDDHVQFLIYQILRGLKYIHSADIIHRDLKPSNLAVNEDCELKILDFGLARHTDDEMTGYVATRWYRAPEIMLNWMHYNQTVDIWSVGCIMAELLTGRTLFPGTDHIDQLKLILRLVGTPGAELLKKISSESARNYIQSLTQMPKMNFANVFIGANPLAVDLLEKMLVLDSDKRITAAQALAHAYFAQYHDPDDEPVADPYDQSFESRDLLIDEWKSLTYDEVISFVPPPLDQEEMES
Sequence of Melanocortin receptor 3 (P41968 whole entry): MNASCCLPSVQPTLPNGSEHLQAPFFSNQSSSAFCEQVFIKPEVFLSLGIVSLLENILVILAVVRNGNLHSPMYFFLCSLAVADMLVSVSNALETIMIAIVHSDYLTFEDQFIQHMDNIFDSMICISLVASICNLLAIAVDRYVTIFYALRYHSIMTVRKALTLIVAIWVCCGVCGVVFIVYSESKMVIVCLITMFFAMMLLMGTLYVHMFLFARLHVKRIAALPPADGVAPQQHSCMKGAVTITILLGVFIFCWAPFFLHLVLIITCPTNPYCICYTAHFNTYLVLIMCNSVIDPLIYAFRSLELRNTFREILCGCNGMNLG
Sequence of C-C chemokine receptor type 2 (P41597 whole entry): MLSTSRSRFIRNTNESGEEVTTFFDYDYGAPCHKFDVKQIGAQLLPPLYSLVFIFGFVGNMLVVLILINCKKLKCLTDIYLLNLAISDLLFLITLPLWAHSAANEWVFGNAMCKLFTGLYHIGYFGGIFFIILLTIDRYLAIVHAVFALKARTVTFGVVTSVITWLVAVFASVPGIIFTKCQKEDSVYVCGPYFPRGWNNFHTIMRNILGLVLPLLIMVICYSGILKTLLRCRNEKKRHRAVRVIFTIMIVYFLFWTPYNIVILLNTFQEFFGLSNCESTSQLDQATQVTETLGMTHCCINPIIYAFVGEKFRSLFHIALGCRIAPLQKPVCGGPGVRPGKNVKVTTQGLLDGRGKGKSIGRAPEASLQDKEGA

By IC50 is commonly meant the concentration that inhibits the measured activity by half. The Ki is a dissociation constant, usually derived from enzyme kinetics or from competition with a known ligand. For `Clc1ccc2c(c1)C(N1CCNCC1)=Nc1ccccc1O2` [AMOXAPINE], the IC50 result (in data set [1]; in [2]; against Leukotriene C4 synthase; against Melanocortin receptor 3; at Progesterone receptor; in data set [3]) was “Not Active” in each case. Further, the IC50 entry (in data set [4]; at Cytochrome P450 2C19; at Cytochrome P450 2C9) was “Not Active” in each case. Also, the Ki entry at Cytochrome P450 2C19 and at Cytochrome P450 2C9 was “Not Active” each time.
As for `COc1cc2c(c(OC)c1OC)-c1ccc(OC)c(=O)cc1[C@@H](NC(C)=O)CC2` [COLCHICINE], the IC50 entry (in [5] (sf9); in [1]; in data set [2]; on Leukotriene C4 synthase; on Melanocortin receptor 3; on Progesterone receptor) was “Not Active” each time. Moreover, the IC50 result (in data set [3]; in data set [4]; against Cytochrome P450 2C19; against Cytochrome P450 2C9) was “Not Active” each time. For the same molecule, the Ki result at Cytochrome P450 2C19 and at Cytochrome P450 2C9 was “Not Active” each time.
Take `CN1CCC(=C2c3ccccc3C=Cc3ccccc32)CC1` [CYPROHEPTADINE]: the IC50 entry (in data set [1]; in data set [2]; at Leukotriene C4 synthase; against Melanocortin receptor 3; on Progesterone receptor; in [3]) was “Not Active” in each case. Moreover, the IC50 entry (in data set [4]; on Cytochrome P450 2C19; against Cytochrome P450 2C9) was “Not Active” each time. The Ki entry at Cytochrome P450 2C19 and at Cytochrome P450 2C9 was “Not Active” throughout.
Consider `CC/C(=C(/CC)c1ccc(O)cc1)c1ccc(O)cc1` [DIETHYLSTILBESTROL], for which the IC50 result is “Not Active” in [1]; “Not Active” in [2]; “Not Active” on Leukotriene C4 synthase; “Not Active” against Melanocortin receptor 3; 32.9 µM in data set [3] (read-out: IC50); “Not Active” in [4]. Also, the 50% inhibitory concentration (IC50) result against Cytochrome P450 2C19 and against Cytochrome P450 2C9 was “Not Active” in each case. Moreover, the values for the Ki at Progesterone receptor (read-out: Ki), on Cytochrome P450 2C19 and on Cytochrome P450 2C9 were 0.611 µM, “Not Active” and “Not Active”, respectively.
In the case of `CC(=O)N1CCN(c2ccc(OCC3COC(Cn4ccnc4)(c4ccc(Cl)cc4Cl)O3)cc2)CC1` (configuration not stated) [KETOCONAZOLE], the IC50 in data set [5] (read-out: IC50) is 19.8 µM; in data set [1], “Not Active”; in [2], “Not Active”; against Leukotriene C4 synthase, “Not Active”; on Melanocortin receptor 3, “Not Active”; on Progesterone receptor, “Not Active”. The IC50 result (in data set [3]; in [4]; at Cytochrome P450 2C19; on Cytochrome P450 2C9) was “Not Active” each time. Also, the Ki is 7.42 µM in [5] (read-out: Ki), “Not Active” at Cytochrome P450 2C19 and “Not Active” on Cytochrome P450 2C9.
For `C=CCN1CC[C@]23c4c5ccc(O)c4O[C@H]2C(=O)CC[C@@]3(O)[C@H]1C5` [NALOXONE], the IC50 entry (in data set [5] (sf9); in [1]; in data set [2]; on Leukotriene C4 synthase; against Melanocortin receptor 3; at Progesterone receptor) was “Not Active” each time. In addition, the IC50 entry in data set [3] and in data set [4] was “Not Active” throughout.
Take `COCCOC(=O)C1=C(C)NC(C)=C(C(=O)OC(C)C)C1c1cccc([N+](=O)[O-])c1` (configuration not stated) [NIMODIPINE]: the half-maximal inhibitory concentration (IC50) entry (in [5] (sf9); in data set [1]; in data set [2]; against Leukotriene C4 synthase; on Melanocortin receptor 3; in data set [6]) was “Not Active” in each case. For the same molecule, the IC50 result (at Progesterone receptor; in [3]; in data set [4]) was “Not Active” each time. For the same molecule, the Ki result in data set [6] was “Not Active”.
As to `CC(C)NCC(O)COc1cccc2ccccc12` (configuration not stated) [PROPRANOLOL], the IC50 result (in [5] (sf9); in data set [2]; against Leukotriene C4 synthase; against Melanocortin receptor 3; on Progesterone receptor; in data set [3]) was “Not Active” each time. Further, the IC50 result (in data set [4]; against Cytochrome P450 2C19; at Cytochrome P450 2C9) was “Not Active” in each case. For the same molecule, the Ki result at Cytochrome P450 2C19 and at Cytochrome P450 2C9 was “Not Active” throughout.
With `O=C(c1ccc(OCCN2CCCCC2)cc1)c1c(-c2ccc(O)cc2)sc2cc(O)ccc12` [RALOXIFENE], the IC50 entry (in [1]; in data set [2]; at Leukotriene C4 synthase; against Melanocortin receptor 3; in [6]; on Progesterone receptor) was “Not Active” in each case. Besides, the half-maximal inhibitory concentration (IC50) entry in data set [3] and in [4] was “Not Active” in each case. The Ki entry in data set [6] is recorded as “Not Active”.
With `CC(C)c1nc(CN(C)C(=O)N[C@H](C(=O)N[C@@H](Cc2ccccc2)C[C@H](O)[C@H](Cc2ccccc2)NC(=O)OCc2cncs2)C(C)C)cs1` [RITONAVIR], the IC50 result (in data set [5] (sf9); in data set [1]; in data set [2]; at Leukotriene C4 synthase; on Melanocortin receptor 3; in [6]) was “Not Active” each time. Further, the half-maximal inhibitory concentration (IC50) entry (on Progesterone receptor; in data set [3]; in data set [4]) was “Not Active” each time. Besides, the Ki entry in data set [6] is “Not Active”.
Regarding `COc1cc(NS(=O)(=O)c2ccc(N)cc2)nc(OC)n1` [SULFADIMETHOXINE], the half-maximal inhibitory concentration (IC50) entry (in data set [5] (sf9); in data set [1]; in data set [2]; at Leukotriene C4 synthase; against Melanocortin receptor 3; in data set [6]) was “Not Active” in each case. In addition, the IC50 entry (on Progesterone receptor; in data set [3]; in data set [4]; against Cytochrome P450 2C19) was “Not Active” each time. For the same molecule, the Ki result (in data set [6]; on Cytochrome P450 2C19) was “Not Active” in each case.
With `CC(C)(C)c1ccc(C(O)CCCN2CCC(C(O)(c3ccccc3)c3ccccc3)CC2)cc1` (configuration not stated) [TERFENADINE], the IC50 result (in data set [5] (sf9); in data set [1]; in [2]; on Leukotriene C4 synthase; on Melanocortin receptor 3; at Progesterone receptor) was “Not Active” in each case. Further, the half-inhibitory concentration (IC50) result (in [3]; in [4]; against Cytochrome P450 2C19) was “Not Active” each time. Moreover, the Ki entry on Cytochrome P450 2C19 is given as “Not Active”.
With `CC[C@]1(O)C[C@@H]2CN(CCc3c([nH]c4ccccc34)[C@@](C(=O)OC)(c3cc4c(cc3OC)N(C)[C@H]3[C@@](O)(C(=O)OC)[C@H](OC(C)=O)[C@]5(CC)C=CCN6CC[C@]43[C@@H]65)C2)C1` [VINBLASTINE], the IC50 entry (in data set [5] (sf9); in data set [1]; in data set [2]; on Leukotriene C4 synthase; against Melanocortin receptor 3; in data set [6]) was “Not Active” throughout. Besides, the IC50 result (at Progesterone receptor; in data set [3]; in data set [4]; at Cytochrome P450 2C9) was “Not Active” in each case. Further, the Ki entry (in data set [6]; at Cytochrome P450 2C9) was “Not Active” each time.
In the case of `C[C@@H](N)[C@H]1CC[C@H](C(=O)Nc2ccncc2)CC1` [Y-27632], the IC50 result (in data set [5] (sf9); in data set [1]; in [2]; against Leukotriene C4 synthase; against Melanocortin receptor 3; in data set [6]) was “Not Active” in each case. Also, the IC50 result (at Progesterone receptor; in data set [3]; in [4]; on Cytochrome P450 2C9) was “Not Active” each time. Further, the Ki result (in data set [6]; on Cytochrome P450 2C9) was “Not Active” each time.
